Source: patent USRE48335E1, “Polymyxin derivatives as antimicrobial compounds” (priority 2014, dated 2020)
Converted amounts (≈) assume the structure as drawn. Where two headings read alike, the source gives them in different places. Positions of bridges follow the written chain, without caps; N, C: chain ends. Non-standard residues stand in square brackets, D forms with d. Residues, ends and D or L forms follow the SMILES beside them. *: point of attachment. Benzoyl(2,3-Cl2) = O=C(c1cccc(Cl)c1Cl)*; X7 = O=C(c1cc(F)cc(C(F)(F)F)c1)*; X23 = O=C(c1c(Cl)cc(Cl)cc1Cl)*; dNle = CCCC[C@@H](N)C(=O)O; Heptanoyl = CCCCCCC(=O)*; Octanoyl = CCCCCCCC(=O)*; Dab = NCC[C@H](N)C(=O)O; Abu = CC[C@H](N)C(=O)O; Dap = NC[C@H](N)C(=O)O

What was measured:
[1] = Nephrotoxicity in a mouse model (kidney histology score); type: in vivo; parameters: key to Max Overall Kidney Histology Score: product of % score and grade score (grade 1-3); 30 to <45 = moderate; settings: mice, subcutaneous 12 mg base/kg, 6 doses in one day every 2 h; for Max Overall Kidney Histology Score: kidney ~20 h after last dose, product of percentage score and grade score; for Max Kidney Histology Score: semiquantitative score (SQS) 0 to +5
Procedure: PMB sulphate (Batch 20120204) and colistin sulphate (Batch 20120719) were supplied by Betapharma (Shanghai Co., Ltd, China). […] At ˜20 h after the last dose, mice were euthanised by inhalation of an overdose of isoflurane. […] The formalin-fixed kidneys were then sent to the Australian Phenomics Network-Histopathology and Organ Pathology (The University of Melbourne, Parkville, VIC, Australia) for histological examination. The samples were examined by a pathologist who was blind to the treatment groups. Lesions were rated as follows: mild acute tubular damage with tubular dilation, prominent nuclei and a few pale […] tubular casts (Grade 1); severe acute tubular damage with necrosis of tubular epithelial cells and numerous tubular casts (Grade 2); acute cortical necrosis/infarction of tubules and glomeruli with or without papillary necrosis (Grade 3). […] The overall kidney histology score was calculated as the product of percentage score and grade score. […] These scores were assigned as follows: […] SQS+3=moderate damage (overall score, 30 to <45); […]

Acinetobacter baumannii = tested on: Acinetobacter baumannii
Procedure, shortened: (§1)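 Broth microdilution, CAMHB, per CLSI M100-S18; compounds as TFA salts; polymyxin B (sulphate) control; read-out MIC.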

Pseudomonas aeruginosa = tested on: Pseudomonas aeruginosa
Procedure, shortened: as §1

Enterobacter cloacae = tested on: Enterobacter cloacae
Procedure, shortened: as §1

Klebsiella pneumoniae = tested on: Klebsiella pneumoniae
Procedure, shortened: as §1

P. aeruginosa ATCC 27853 = assay: In vivo efficacy in mouse blood infection model (neutropenic Swiss mice); settings: compound, free base 4 mg/kg intravenously 2 h after inoculation, blood at 4 h
Procedure, shortened: (§2)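 Activity expressed as Δlog10 CFU/mL blood, treated minus saline control, 4 h after a single 4 mg/kg (free base) i.v. dose given 2 h post-infection. Bloodstream infection from i.v. early log-phase inoculum in Swiss mice made neutropenic by i.p. cyclophosphamide on days −4 (150 mg/kg) and −1 (100 mg/kg).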

[2] = tested on: K. pneumoniae FADDI-KP032; assay: as above; settings: compound, free base 4 mg/kg intravenously 2 h after inoculation, blood at 4 h
Procedure, shortened: as §2

A. baumannii ATCC 19606 = assay: as above; settings: compound, free base 4 mg/kg intravenously 2 h after inoculation, blood at 4 h
Procedure, shortened: as §2

[3] = Acinetobacter baumannii ATCC 17978, broth microdilution in CAMHB
[4] = Acinetobacter baumannii ATCC 19606, broth microdilution in CAMHB
[5] = Acinetobacter baumannii FADDI-AB034, broth microdilution in CAMHB
[6] = Pseudomonas aeruginosa ATCC 27853, broth microdilution in CAMHB
[7] = Pseudomonas aeruginosa FADDI-PA022, broth microdilution in CAMHB
[8] = Pseudomonas aeruginosa FADDI-PA025, broth microdilution in CAMHB
[9] = Enterobacter cloacae FADDI-EC001, broth microdilution in CAMHB
[10] = Enterobacter cloacae FADDI-EC003, broth microdilution in CAMHB
[11] = Enterobacter cloacae FADDI-EC006, broth microdilution in CAMHB

Row | Compound | Max Overall Kidney Histology Score [1] | Max Kidney Histology Score [1] | Minimum inhibitory concentration, Ab A ATCC 17978 (Acinetobacter baumannii; [3]) [µg/mL] | Minimum inhibitory concentration, Ab ATCC 19606 (Acinetobacter baumannii; [4]) [µg/mL] | Minimum inhibitory concentration, Ab FADDI-AB034 (Acinetobacter baumannii; [5]) [µg/mL] | Minimum inhibitory concentration, Pa ATCC 27853 (Pseudomonas aeruginosa; [6]) [µg/mL] | Minimum inhibitory concentration, Pa FADDI-PA022 (Pseudomonas aeruginosa; [7]) [µg/mL] | Minimum inhibitory concentration, Pa FADDI-PA025 (Pseudomonas aeruginosa; [8]) [µg/mL] | Minimum inhibitory concentration, Ec FADDI-EC001 (Enterobacter cloacae; [9]) [µg/mL] | Minimum inhibitory concentration, Ec FADDI-EC003 (Enterobacter cloacae; [10]) [µg/mL] | Minimum inhibitory concentration, Ec FADDI-EC006 (Enterobacter cloacae; [11]) [µg/mL] | MIC (Acinetobacter baumannii) [µg/mL] | Minimum inhibitory concentration, Ab A ATCC 17978 (Acinetobacter baumannii) [µg/mL] | Minimum inhibitory concentration, Ab ATCC 19606 (Acinetobacter baumannii) [µg/mL] | Minimum inhibitory concentration, Ab FADDI-AB034 (Acinetobacter baumannii) [µg/mL] | MIC (Pseudomonas aeruginosa) [µg/mL] | Minimum inhibitory concentration, Pa ATCC 27853 (Pseudomonas aeruginosa) [µg/mL] | Minimum inhibitory concentration, Pa FADDI-PA022 (Pseudomonas aeruginosa) [µg/mL] | Minimum inhibitory concentration, Pa FADDI-PA025 (Pseudomonas aeruginosa) [µg/mL] | Minimum inhibitory concentration, Ec FADDI-EC001 (Enterobacter cloacae) [µg/mL] | also measured
1 | polymyxin B [reference compound] | 60.0 | +5 (SQS+5=severe damage (overall score, >60)) | 1 | 1 | 0.5 | 1 | 1 | 1 | 0.25 | 0.5 | 0.5 |  |  |  |  |  |  |  |  |  | nephrotoxicity in the in vivo nephrotoxicity model ([1]; kidney histology ~20 h after last dose): severe nephrotoxicity
2 | CC[C@@H]1NC(=O)[C@@H](CC(C)C)NC(=O)[C@H](CCN)NC(=O)[C@@H](NC(=O)[C@H](CN)NC(=O)[C@@H](NC(=O)[C@H](CCN)NC(=O)c2cccc(Cl)c2Cl)[C@@H](C)O)CCNC(=O)[C@H]([C@@H](C)O)NC(=O)[C@H](CCN)NC(=O)[C@H](CCN)NC1=O [Compound 90] ({Benzoyl(2,3-Cl2)}-[Dab]T[Dap][Dab][Dab][dL][Abu][Dab][Dab]T; lactam 4-C) | 0.0 | 0 (SQS 0=no significant change (overall score, <1)) | 1 (≈ 0.862 µM) | 2 (≈ 1.72 µM) | 8 (≈ 6.9 µM) | 0.5 (≈ 0.431 µM) | 2 (≈ 1.72 µM) | 2 (≈ 1.72 µM) | 0.5 (≈ 0.431 µM) | 8 (≈ 6.9 µM) | 0.25 (≈ 0.215 µM) |  |  |  |  |  |  |  |  |  | 
3 | CC[C@@H]1NC(=O)[C@@H](CC(C)C)NC(=O)[C@H](CCN)NC(=O)[C@@H](NC(=O)[C@H](CN)NC(=O)[C@@H](NC(=O)[C@H](CCN)NC(=O)c2c(Cl)cc(Cl)cc2Cl)[C@@H](C)O)CCNC(=O)[C@H]([C@@H](C)O)NC(=O)[C@H](CCN)NC(=O)[C@H](CCN)NC1=O [Compound 95] (X23-[Dab]T[Dap][Dab][Dab][dL][Abu][Dab][Dab]T; lactam 4-C) | 0.0 | 0 (SQS 0=no significant change (overall score, <1)) | 0.25 (≈ 0.209 µM) | 0.25 (≈ 0.209 µM) | 0.25 (≈ 0.209 µM) | 2 (≈ 1.67 µM) | 4 (≈ 3.35 µM) | 2 (≈ 1.67 µM) | <0.125 | 0.25 (≈ 0.209 µM) | 1 (≈ 0.837 µM) |  |  |  |  |  |  |  |  |  | 
4 | CCCCCCC(=O)N[C@@H](CCN)C(=O)N[C@H](C(=O)N[C@@H](CN)C(=O)N[C@H]1CCNC(=O)[C@H]([C@@H](C)O)NC(=O)[C@H](CCN)NC(=O)[C@H](CCN)NC(=O)[C@H](CC)NC(=O)[C@@H](Cc2ccccc2)NC(=O)[C@H](CCN)NC1=O)[C@@H](C)O [Compound 131] (Heptanoyl-[Dab]T[Dap][Dab][Dab][dF][Abu][Dab][Dab]T; lactam 4-C) |  |  |  |  |  |  |  |  |  |  |  | 0.25 (≈ 0.221 µM) | 0.25 (≈ 0.221 µM) | 0.25 (≈ 0.221 µM) | 0.25 (≈ 0.221 µM) | 0.5 (≈ 0.441 µM) | 0.5 (≈ 0.441 µM) | 2 (≈ 1.76 µM) | 4 (≈ 3.53 µM) | <0.125 | Minimum inhibitory concentration, Ec FADDI-EC003 (Enterobacter cloacae): <0.125 µg/mL; Minimum inhibitory concentration, Ec FADDI-EC006 (Enterobacter cloacae): <0.125 µg/mL; MIC (Klebsiella pneumoniae): <0.125 µg/mL; Δ log (Treated-Control at 4 h) (P. aeruginosa ATCC 27853): −3.80 log10 CFU/mL; Δ log (Treated-Control at 4 h) [2]: −3.44 log10 CFU/mL; Δ log (Treated-Control at 4 h) (A. baumannii ATCC 19606): −1.75 log10 CFU/mL
5 | CCCCCCCC(=O)N[C@@H](CCN)C(=O)N[C@H](C(=O)N[C@@H](CCN)C(=O)N[C@H]1CCNC(=O)[C@H]([C@@H](C)O)NC(=O)[C@H](CCN)NC(=O)[C@H](CCN)NC(=O)[C@H]([C@@H](C)O)NC(=O)[C@@H](CCCC)NC(=O)[C@H](CCN)NC1=O)[C@@H](C)O [Compound 24] (Octanoyl-[Dab]T[Dab][Dab][Dab][dNle]T[Dab][Dab]T; lactam 4-C) |  |  |  |  |  |  |  |  |  |  |  | 1 (≈ 0.875 µM) | 1 (≈ 0.875 µM) | 1 (≈ 0.875 µM) | 1 (≈ 0.875 µM) | 0.5 (≈ 0.437 µM) | 0.5 (≈ 0.437 µM) | 0.5 (≈ 0.437 µM) | 16 (≈ 14 µM) | <0.125 | Minimum inhibitory concentration, Ec FADDI-EC003 (Enterobacter cloacae): <0.125 µg/mL; Minimum inhibitory concentration, Ec FADDI-EC006 (Enterobacter cloacae): 0.25 µg/mL (≈ 0.219 µM); MIC (Klebsiella pneumoniae): <0.125 µg/mL; Δ log (Treated-Control at 4 h) (P. aeruginosa ATCC 27853): −2.31 log10 CFU/mL; Δ log (Treated-Control at 4 h) [2]: −3.21 log10 CFU/mL; Δ log (Treated-Control at 4 h) (A. baumannii ATCC 19606): −2.16 log10 CFU/mL
6 | CC[C@@H]1NC(=O)[C@@H](CC(C)C)NC(=O)[C@H](CCN)NC(=O)[C@@H](NC(=O)[C@H](CN)NC(=O)[C@@H](NC(=O)[C@H](CCN)NC(=O)c2cc(F)cc(C(F)(F)F)c2)[C@@H](C)O)CCNC(=O)[C@H]([C@@H](C)O)NC(=O)[C@H](CCN)NC(=O)[C@H](CCN)NC1=O [Compound 108] (X7-[Dab]T[Dap][Dab][Dab][dL][Abu][Dab][Dab]T; lactam 4-C) |  |  |  |  |  |  |  |  |  |  |  | 0.5 (≈ 0.425 µM) | 0.5 (≈ 0.425 µM) | 0.5 (≈ 0.425 µM) | 0.5 (≈ 0.425 µM) | 0.5 (≈ 0.425 µM) | 0.5 (≈ 0.425 µM) | 0.5 (≈ 0.425 µM) | 2 (≈ 1.7 µM) | 1 (≈ 0.849 µM) | Minimum inhibitory concentration, Ec FADDI-EC003 (Enterobacter cloacae): 0.5 µg/mL (≈ 0.425 µM); Minimum inhibitory concentration, Ec FADDI-EC006 (Enterobacter cloacae): 0.5 µg/mL (≈ 0.425 µM); MIC (Klebsiella pneumoniae): 0.25 µg/mL (≈ 0.212 µM); Δ log (Treated-Control at 4 h) (P. aeruginosa ATCC 27853): −2.32 log10 CFU/mL; Δ log (Treated-Control at 4 h) [2]: −2.84 log10 CFU/mL; Δ log (Treated-Control at 4 h) (A. baumannii ATCC 19606): −1.82 log10 CFU/mL
